The supplement of paper PMC10307832

Columns and labels:
Assay in all cases: relative viability (nuclei count vs DMSO), 5 days (fraction); higher = more cells survive
[1] = compound: O=C(NC1CCNCC1)c1n[nH]cc1NC(=O)c1c(Cl)cccc1Cl [AT-7519] + Nc1nc2[nH]cc(CCc3ccc(C(=O)N[C@@H](CCC(=O)O)C(=O)O)cc3)c2c(=O)[nH]1 [Pemetrexed] (partner 0.2 µM)
Method in brief: (§1)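 Lung cancer cell lines were pin-tool dosed in 1536-well plates on the day after seeding, with either a lone drug or a fixed anchor-drug dose plus five library-drug doses (not always all listed) in √10 steps. Nuclei were counted on 4× images after 5 days. Relative viability is the ratio of treated-well to vehicle-well nuclei counts, with each value a median of duplicate plates.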

[2] = compound: O=C(NC1CCNCC1)c1n[nH]cc1NC(=O)c1c(Cl)cccc1Cl [AT-7519] + CC(=O)Nc1cccc(-n2c(=O)n(C3CC3)c(=O)c3c(Nc4ccc(I)cc4F)n(C)c(=O)c(C)c32)c1 [Trametinib] (partner 0.02 µM)
Method in brief: as §1

[3] = compound: O=C(NC1CCNCC1)c1n[nH]cc1NC(=O)c1c(Cl)cccc1Cl [AT-7519] + COc1cc2c(Oc3ccc(NC(=O)C4(C(=O)Nc5ccc(F)cc5)CC4)cc3F)ccnc2cc1OCCCN1CCOCC1 [Foretinib] (partner 0.25 µM)
Method in brief: as §1

[4] = compound: C1=CC2=C(C=C(C(=C2N=C1)O)N=NC3=CC4=C(C=C3)C=C(C=C4)S(=O)(=O)O)S(=O)(=O)O + Nc1nc2[nH]cc(CCc3ccc(C(=O)N[C@@H](CCC(=O)O)C(=O)O)cc3)c2c(=O)[nH]1 [Pemetrexed] (partner 0.2 µM)
Method in brief: as §1

| Cell Line | relative viability ([1]; first compound 0.01 µM) | relative viability ([1]; first compound 0.03162 µM) | relative viability ([1]; first compound 0.3162 µM) | relative viability ([1]; first compound 1 µM) | relative viability ([2]; first compound 0.01 µM) | relative viability ([2]; first compound 0.03162 µM) | relative viability ([2]; first compound 0.3162 µM) | relative viability ([2]; first compound 1 µM) | relative viability ([3]; first compound 0.01 µM) | relative viability ([3]; first compound 0.03162 µM) | relative viability ([3]; first compound 0.3162 µM) | relative viability ([3]; first compound 1 µM) | relative viability ([4]; first compound 0.08 µM) | relative viability ([4]; first compound 0.253 µM) | relative viability ([4]; first compound 0.8 µM) | relative viability ([4]; first compound 2.53 µM) | relative viability ([4]; first compound 8 µM) |
| --- | --- | --- | --- | --- | --- | --- | --- | --- | --- | --- | --- | --- | --- | --- | --- | --- | --- |
| NCI-H1355 | 1.04 | 1.03 | 1.06 | 0.974 | 0.482 | 0.416 | 0.48 | 0.298 | 0.906 | 0.989 | 1.02 | 0.854 | 1.13 | 1.05 | 1.02 | 1.1 | 0.872 |
| HOP-62 | 0.359 | 0.335 | 0.302 | 0.328 | 0.344 | 0.347 | 0.401 | 0.176 | 1.11 | 1.16 | 1.04 | 0.977 | 0.263 | 0.279 | 0.312 | 0.349 | 0.325 |
| NCI-H2085 | 0.924 | 1.01 | 0.901 | 0.986 | 0.468 | 0.585 | 0.595 | 0.367 | 0.932 | 0.84 | 0.888 | 0.874 | 0.923 | 0.864 | 0.846 | 0.903 | 0.92 |
| SW 900 | 0.453 | 0.425 | 0.452 | 0.478 | 0.986 | 0.744 | 0.659 | 0.401 | 0.792 | 0.68 | 0.858 | 0.442 | 0.479 | 0.49 | 0.468 | 0.531 | 0.481 |
